Values joined by “and” are separate entries in the source; they are usually repeats but may differ in a detail not shown here. Equal values may be shown once.
System: iPSC cardiomyocytes (iCell Cardiomyocytes^2)
Assay: Model drug (norepinephrine) cardiotoxicity experiment: impedance / cell index on nIDEs with cultured iPSC cardiomyocytes
Assay type: cell-based, Human

## NC[C@H](O)c1ccc(O)c(O)c1 [norepinephrine]
0 μM to 250 μM, N=6, FIG. 24
  change of CI and % CI with norepinephrine concentration: both decrease as the concentration of norepinephrine increases
At 256 μm norepinephrine, mean of N=7, 86.91% at 0 μM, FIG. 24
  percent cell index (% CI): 48.88%
At 256 μm norepinephrine, mean of N=7, CI=2.34 at 0 μM, FIG. 23
  cell index (CI): 1.13
Summary statement, concentration not given, decrease from 2.34 / 2.3
  cellular index (CI) after increased concentrations of norepinephrine: 1.13 and 1

From US11255806B2, “Interdigitated electrodes for in vitro analysis of cells” (UNIVERSITY OF CENTRAL FLORIDA RESEARCH FOUNDATION, INC., priority 2017, dated 2022)
